In this experiment the target is b-CA-II (bovine carbonic anhydrase II) (Bos taurus, UniProt P00921). The experiment in a line: p-nitrophenyl acetate esterase assay, bovine enzyme, absorbance at […] nm. The class given is biochemical.

From publication PMC11892125 (BMC Chemistry, 2025) come the findings set out here.

Chain of b-CA-II (bovine carbonic anhydrase II) (P00921 2-260): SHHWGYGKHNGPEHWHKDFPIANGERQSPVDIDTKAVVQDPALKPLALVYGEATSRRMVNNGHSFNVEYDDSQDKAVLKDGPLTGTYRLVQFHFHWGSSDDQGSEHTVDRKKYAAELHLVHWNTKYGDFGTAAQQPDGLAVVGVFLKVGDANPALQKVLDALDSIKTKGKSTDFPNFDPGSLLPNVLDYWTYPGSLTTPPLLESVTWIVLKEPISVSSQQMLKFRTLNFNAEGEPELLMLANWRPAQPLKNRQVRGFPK

What is called IC50 is the concentration at which inhibition is half-maximal. The low end stands for greater potency in that assay, the high end for weaker potency in that assay. Compound `CCCCCCCC1(O)CS/C(=N\C(=O)c2ccc(Br)cc2)N1c1ccccc1-c1ccccc1` (stereo not shown) [compound 5, (Z)-N-(3-([1,1'-biphenyl]-2-yl)-4-heptyl-4-hydroxythiazolidin-2-ylidene)-4-bromobenzamide] displayed an IC50 of 147 ± 30 nM.
